Data set [1] relates to Connexin (Cx) 43 expression in B16 cells. Kind of data set: Cx43 expression in B16 cells after infection or PAMP/IFN-g treatment (immunofluorescence, Western blot). In kind it is cell-based, murine. As for the experimental part:
Single bacterial colonies were grown overnight and restarted the next day to reach an A600 nm=0.6 corresponding to 0.6×10^9 CFU/mL. Murine and human melanoma cells were incubated with bacteria for 2 h, at a ratio of 1:50 (cell/bacteria), in the appropriate medium without antibiotics. Cells were washed with PBS and incubated in medium supplemented with 50 μg/mL gentamicin for 12 or 24 h in order to kill extracellular bacteria, with or without IFN-g(100 U/ml).
B16 cells and DC1 DCs were plated in 6-well plates (2×10^5 cells/well) and grown for 18 h. Cells were incubated with PAMPs in complete medium with or without IFN-g(100 U/ml) for 24 hours. The PAMPs used were LPS (1 μg/ml, Sigma), flagellin (0.1 μg/ml, Alexis) and LTA (10 μg/ml, Sigma).
24 hour after infection or treatment with PAMPs, melanoma cells were scraped in ELB buffer (250 mM NaCl, 0.5% Nonidet P-40, 50 mM HEPES [pH 7.0], 5 mM EDTA) containing 1 mM dithiothreitol, 0.5 mM phenylmethylsulfonyl fluoride, and protease inhibitors. Cell lysates were run on SDS page and transferred on Immobilon PVDF membranes. Membranes were probed with a polyclonal rabbit-anti-Cx43 antibody (Sigma) or with a monoclonal mouse-anti-Cx43 antibody (Zymed) or with mouse-anti-vinculin antibody (Sigma) overnight at 4° C. and incubated with anti-mouse horseradish peroxidase-conjugated IgG (Calbiochem) or with anti-rabbit horseradish peroxidase-conjugated IgG (BioRad) antibodies for 1 h. Visualization was carried out with ECL (GE Healthcare). Bands were quantified by densitometry using NIH Image-based software Scion Image (Scion Corporation).
B16 cells were plated onto coverslips (5×10^4 cells/coverslip) and grown for 18 h. Cells were infected with Salmonella. After 24 hours the cells were fixed in 4% (w/v) paraformaldehyde in PBS for 15 min. Blocking and permeabilization were carried out incubating the cells in PBS, 3% (w/v) bovine serum albumin (BSA) and 0.1% (w/v) Triton X-100 for 20 min. The cells were then stained with polyclonal rabbit-anti-Cx43 primary antibody (Sigma, 1:2000) and with an anti-rabbit-Cy3-conjugated secondary antibody (Jackson ImmunoResearch laboratories, 1:400). Cell nuclei were stained with 4′,6-diamidino-2-phenylindole. Confocal microscopy was carried out using a Leica TCS-SP2 (Leica Microsystem).

In the next data set the test system is B16-OVA cells / DCs. Kind of data set: In vitro cross-presentation assay (K^bOVA on CD11c+ DCs). Type of data set: cell-based, murine. As for the experimental part: B16 and B16-OVA cells alone or together with DCs were treated or not with Salmonella and 24 hours later were stained with 5 μM of Carboxyfluorescein Succinimidyl ester (CF SE) for 20 minutes at 37° C. in the dark and then washed with cold PBS. Where stated, B16 and B16-OVA cells were treated with 10 μM Lactacystin (Sigma) overnight. […] After 24 hours cross-presentation of OVA peptide by DCs was analyzed by cytofluorimetry on CD11c^+ cells using an antibody that recognizes the OVA SIINFEKL peptide in association with MHC I (anti K^bOVA, 25-D1.16).

Data set [2] concerns GJs dependent intercellular communication, Mel-04 to human MoDC. Kind of data set: FACS dye transfer assay, human cells: Mel-04 to MoDC. In kind it is cell-based. The settings on record: co-culture in presence of heptanol (3.5 mM). The text has this: FIG. 18. Salmonella infection upregulates GJs dependent intercellular communication in a melanoma-MoDC coculture model system. Human monocyte-derived DCs (MoDCs) were labeled with DDAO and then extensively washed.

Data set [3] has as its system GJs-dependent intercellular communication, SK-Mel-24 to Mo-DC. Type of data set: cell-based, human.
The subject of data set [4] is GJs dependent intercellular communication between SK-Mel-24 cells. Kind of data set: Dye transfer between SK-Mel-24 melanoma cells. In kind it is cell-based, human. The settings on record: in the presence of heptanol. The method, then: FIG. 20. Salmonella infection up-regulates GJs dependent intercellular communication in SK-Mel-24 melanoma cell line. In this experiment the dye transfer was performed from melanoma to melanoma cells (SK-Mel-24). The increase in dye transfer from Salmonella infected to non-infected SK-Mel-24 cells is clear as compared to that from non-infected to non-infected cells. The right panel represents the same experiment performed in the presence of Heptanol, an inhibitor of GJ dependent intercellular communication. Data are expressed as percentage of SK-Mel-24 calcein positive cells.

Data set [5] relates to SK-Mel24 and other target cell lines. Kind of data set: CTL generation and cytotoxicity (DELFIA cytotoxicity kit). Type of data set: cell-based, human. The settings on record: Mo-DC/SL-infected SK-Mel24 coculture in presence of Heptanol (3,5 mM). The method, then:
FIG. 24. SL-infected SK-Mel-24 loaded MoDC generate CTLs able to recognize epitopes shared among melanoma cells. CTL generated as described in materials and methods were tested for their antigen-specific cytotoxicity using DELFIA cytotoxicity kit. Target cells were: SK-Mel24, melanoma cell line, HLA negative cell line, HT29 (colon carcinoma).
Mo-DCs obtained from the same donor were loaded with SL-infected SK-Mel24 (SL-SK), and cultured, with purified CD8^+ T cells. Proliferating cells were expanded for 7-10 days in complete medium supplemented with 20 U/ml of rhIL-2. Cytotoxic properties of generated CTLs were tested against selected targets.
Purified CD8 T cells by magnetic cell sorting were cultured with MoDCs previously cocultured with infected or non-infected Sk-Mel24 in the presence or absence of 3,5 mM heptanol. After 24-48h cultures were supplemented with 20 U/ml of rhIL-2 and after 7-10 days CTLs were either subjected to a second round of stimulation or assayed for their cytotoxic activity. Melanoma specific cytotoxicity was measured by using DELFIA cytotoxicity Kit (Perkin Elmer) and lysosomal-associated membrane protein-1 (CD107a) mobilization was performed by using BD FastImmune CD107a reagent (BD Bioscience), according to manufacturer's instructions.

Data set [6] has as its system gap junctions between B16 cells and DCs. The data set can be described thus: FACS dye transfer assay, murine cells (calcein-AM from B16 to DDAO-labeled DCs). The settings on record: co-culture in presence of heptanol (3.5 mM).
Description: B16 cells were infected or not with Salmonella, pulsed with the GJ-diffusible dye Calcein-AM and incubated with DDAO-labeled DCs, in the presence or absence of heptanol. One h later the % of cells double positive for DDAO and Calcein-AM, representing the DCs that received the dye from tumor cells, was evaluated by FACS (Black bars).
FACS assay murine cells. DCs were labeled with 10 μM of the dye 7-hydroxy-9H(I,3-dichloro-9,9-dimethylacridin-2-one) (DDAO, Molecular Probes) for 15 minutes at R.T. in the dark and then extensively washed with PBS. B16 cells were infected or not with Salmonella and after 24 hours were labeled with 0.5 μM calcein-acetoxymethylester (calcein-AM; Molecular Probes) in serum-free medium for 30 minutes at 37° C. and then co-cultured with DCs at a ratio of 2:1. Calcein transfer between tumor cells and DCs was evaluated by cytofluorimetry. The co-culture of B16/DCs was carried out in the presence or absence of (3.5 mM) Heptanol (Sigma).
[7] abbreviates: B16 cells incubated with purified bacterial components, Western blot 24 h.

Here are results for six molecules from patent US20130129713A1, “METHOD OF ANTIGEN LOADING FOR IMMUNOTHERAPY” (IEO - ISTITUTO EUROPEO DI ONCOLOGIA S.R.L., priority 2010, published 2013).

Consider flagellin, for which the Cx43 expression entry in data set [1] (setting [7]) is reported as “same upregulation of Cx43”.
Still for that read-out and setting: under lypopolysaccharide [LPS] stands “same upregulation of Cx43”.
For `CCCCCCCO` [heptanol], in the data set on B16-OVA cells / DCs (infected B16-OVA + mature DCs 24 h, Heptanol (3.5 mM)), the “presentation of OVA peptide (K^bOVA) by DCs” value is recorded as “completely abolished the presentation of the peptide”. The “calcein dye transfer from Mel-04 to MoDC” value in data set [2] is “capable of inhibiting the transfer”. Moreover, the “calcein transfer from SK-Mel-24 to Mo-DC” value in data set [3] is given as “most of the calcein transfer was inhibited”. The “dye transfer from infected to non infected SK-Mel-24 cells” value in data set [4] is “inhibited”. The “cytotoxicity of generated CTLs against the specific target” value in data set [5] was “unable to lyse the specific target”. Moreover, in data set [6], the “transfer of calcein from B16 cells to DCs” value was “completely abolished the transfer of calcein”.
Take `CC(=O)N[C@@H](CSC(=O)[C@]1([C@@H](O)C(C)C)NC(=O)[C@H](C)[C@@H]1O)C(=O)O` [lactacystin]: the “DC surface exposure of the K^b-OVA complex” value in the data set with B16-OVA cells / DCs (B16-OVA pretreated with 10 μM Lactacystin overnight) is reported as “prevented the DC surface exposure of the K^b-OVA complex”.
In the case of lipoteichoic acid [LTA], in data set [1] (setting [7]), the Cx43 expression entry is given as “same upregulation of Cx43”.

B1: IFN-g: inflammatory cytokine gamma-IFN (protein, UniProt P01579 24-161, looked up)
Interferon gamma: QDPYVKEAENLKKYFNAGHSDVADNGTLFLGILKNWKEESDRKIMQSQIVSFYFKLFKNFKDDQSIQKSVETIKEDMNVKFFNSNKKKRDDFEKLTNYSVTDLNVQRKAIHELIQVMAELSPAAKTGKRKRSQMLFRG
For B1, in data set [1] (B16 cells, IFN-g alone (100 U/ml)), the Cx43 expression entry is “upregulated Cx43”. Besides, in data set [1] (B16 cells, IFN-g together with Salmonella or bacterial components), the “Cx43 expression, combination effect” value is given as “acted in synergy with the bacterial components”.
